The record followed here is patent US9266869B2, “Substituted dialkyl(oxido)-lambda4-sulfanylidene nicotinamide derivatives as kinase inhibitors” (Allergan, Inc., priority 2013, dated 2016).

Data set [1] deals with VEGFR2 (KDR) (Homo sapiens (Human), UniProt P35968). In words: VEGFR2 Kinase Assay. The data set is classed as biochemical. The note with it: purified cytoplasmic domain KDR protein, 2.7 μM ATP; read-out: VEGFR2 Enzyme Assay (IC50 nM). As to the method:
VEGFR2 Kinase Assay Biochemical KDR kinase assays were performed in 96 well microtiter plates that were coated overnight with 75 μg/well of poly-Glu-[…]:1) in 10 mM Phosphate Buffered Saline (PBS), pH 7.4. […] Reactions were carried out in 100 μL reaction volumes containing 2.7 μM ATP in kinase buffer (50 mM Hepes buffer pH 7.4, 20 mM MgCl2, 0.1 mM MnCl2 and 0.2 mM Na3VO4). […] Reactions were initiated by the addition 20 ul per well of kinase buffer containing 200-300 ng purified cytoplasmic domain KDR protein (BPS Bioscience, San Diego, Calif.). Following a 15 minute incubation at 30° C., the reactions were washed 2 mls per well PBS-T. 100 μl of a monoclonal anti-phosphotyrosine antibody-peroxidase conjugate diluted 1:10,000 in PBS-T was added to the wells for 30 minutes. Following a 2 mls per well wash with PBS-Tween-20, 100 μl of 0-Phenylenediamine Dihydrochloride in phosphate-citrate buffer, containing urea hydrogen peroxide, was added to the wells for 7-10 minutes as a colorimetric substrate for the peroxidase. […] IC50 values for compound inhibition were calculated directly from graphs of optical density (arbitrary units) versus compound concentration following subtraction of blank values.

For data set [2], the target named is VEGFR2 (Homo sapiens (Human), UniProt P35968). In words: VEGFR2 Cellular Assay (VEGF induced intracellular calcium, FLIPR, HUVEC). The class given is cell-based. The note with it: VEGF165 stimulation (10 ng/mL). How it is done:
(§1) VEGFR2 Cellular Assay Automated FLIPR (Fluorometric Imaging Plate Reader) technology was used to screen for inhibitors of VEGF induced increases in intracellular calcium levels in fluorescent dye loaded endothelial cells. HUVEC (human umbilical vein endothelial cells) (Clonetics) were seeded in 384-well fibronectin coated black-walled plates overnight @ 37° C./5% CO2. Cells were loaded with calcium indicator Fluo-4 for 45 minutes at 37° C. Cells were washed 2 times (Elx405, Biotek Instruments) to remove extracellular dye. For screening, cells were pre-incubated with test agents for 30 minutes, at a single concentration (10 uM) or at concentrations ranging from 0.0001 to 10.0 uM followed by VEGF165 stimulation (10 ng/mL). Changes in fluorescence at 516 nm were measured simultaneously in all 384 wells using a cooled CCD camera. Data were generated by determining max-min fluorescence levels for unstimulated, stimulated, and drug treated samples. IC50 values for test compounds were calculated from % inhibition of VEGF stimulated responses in the absence of inhibitor.

Data set [3] addresses T1, PDGFRβ (Homo sapiens (Human), UniProt P09619). In words: PDGFRβ Kinase Assay. The data set is classed as biochemical. The note with it: purified cytoplasmic domain PDGFR-b protein, 36 μM ATP; read-out: PDGFRβ Enzyme Assay (IC50 nM). How it is done: Biochemical PDGFRβ kinase assays were performed in 96 well microtiter plates that were coated overnight with 75 μg of poly-Glu-Tyr (4:1) in 10 mM Phosphate Buffered Saline (PBS), pH 7.4.
PBS-T prior to starting the reaction. Reactions were carried out in 100 μL reaction volumes containing 36 μM ATP in kinase buffer (50 mM Hepes buffer pH 7.4, 20 mM MgCl2, 0.1 mM MnCl2 and 0.2 mM Na3VO4). […] Reactions were initiated by the addition 20 ul per well of kinase buffer containing 200-300 ng purified cytoplasmic domain PDGFR-b protein (Millipore). Following a 60 minute incubation at 30° C., the reactions were washed 2 mls per well PBS-T. 100 μl of a monoclonal anti-phosphotyrosine antibody-peroxidase conjugate diluted 1:10,000 in PBS-T was added to the wells for 30 minutes. Following a 2 mls per well wash with PBS-Tween-20, 100 μl of O-Phenylenediamine Dihydrochloride in phosphate-citrate buffer, containing urea hydrogen peroxide, was added to the wells for 7-10 minutes as a colorimetric substrate for the peroxidase. […] IC50 values for compound inhibition were calculated directly from graphs of optical density (arbitrary units) versus compound concentration following subtraction of blank values.
Target sequence in this assay (P09619 554-1106): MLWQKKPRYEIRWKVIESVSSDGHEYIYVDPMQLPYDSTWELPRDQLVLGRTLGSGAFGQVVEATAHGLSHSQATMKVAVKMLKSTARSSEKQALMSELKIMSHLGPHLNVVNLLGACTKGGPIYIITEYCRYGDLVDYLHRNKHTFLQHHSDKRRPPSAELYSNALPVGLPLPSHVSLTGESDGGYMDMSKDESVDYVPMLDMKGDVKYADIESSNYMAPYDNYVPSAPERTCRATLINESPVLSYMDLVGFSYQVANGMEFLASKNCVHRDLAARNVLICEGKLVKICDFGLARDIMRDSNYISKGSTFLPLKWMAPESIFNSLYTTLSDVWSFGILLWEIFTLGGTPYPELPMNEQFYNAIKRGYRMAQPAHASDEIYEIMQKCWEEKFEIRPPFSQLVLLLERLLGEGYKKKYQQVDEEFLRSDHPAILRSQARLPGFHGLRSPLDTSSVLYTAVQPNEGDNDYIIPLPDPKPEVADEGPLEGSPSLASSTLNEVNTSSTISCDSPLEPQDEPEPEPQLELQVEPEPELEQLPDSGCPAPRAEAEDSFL

Data set [4] addresses T1, PDGFRβ. Put plainly: PDGFRβ Cellular Assay (PDGF-induced intracellular calcium, FLIPR, NHDF-Ad). The class given is cell-based. The note with it: PDGF-BB stimulation (30 ng/mL). How it is done:
as §1, with “Automated” for “VEGFR2 Cellular Assay Automated”, “of PDGF-induced” for “of VEGF induced”, “[…]. NHDF-Ad (Normal Human Dermal Fibroblasts, Adult; Lonza)” for “cells. HUVEC (human umbilical vein endothelial cells) (Clonetics)”, “by PDGF-BB” for “by VEGF165”, “stimulation (30” for “stimulation (10”, “of PDGF-BB” for “of VEGF”
Target sequence in this assay (P09619 33-1106): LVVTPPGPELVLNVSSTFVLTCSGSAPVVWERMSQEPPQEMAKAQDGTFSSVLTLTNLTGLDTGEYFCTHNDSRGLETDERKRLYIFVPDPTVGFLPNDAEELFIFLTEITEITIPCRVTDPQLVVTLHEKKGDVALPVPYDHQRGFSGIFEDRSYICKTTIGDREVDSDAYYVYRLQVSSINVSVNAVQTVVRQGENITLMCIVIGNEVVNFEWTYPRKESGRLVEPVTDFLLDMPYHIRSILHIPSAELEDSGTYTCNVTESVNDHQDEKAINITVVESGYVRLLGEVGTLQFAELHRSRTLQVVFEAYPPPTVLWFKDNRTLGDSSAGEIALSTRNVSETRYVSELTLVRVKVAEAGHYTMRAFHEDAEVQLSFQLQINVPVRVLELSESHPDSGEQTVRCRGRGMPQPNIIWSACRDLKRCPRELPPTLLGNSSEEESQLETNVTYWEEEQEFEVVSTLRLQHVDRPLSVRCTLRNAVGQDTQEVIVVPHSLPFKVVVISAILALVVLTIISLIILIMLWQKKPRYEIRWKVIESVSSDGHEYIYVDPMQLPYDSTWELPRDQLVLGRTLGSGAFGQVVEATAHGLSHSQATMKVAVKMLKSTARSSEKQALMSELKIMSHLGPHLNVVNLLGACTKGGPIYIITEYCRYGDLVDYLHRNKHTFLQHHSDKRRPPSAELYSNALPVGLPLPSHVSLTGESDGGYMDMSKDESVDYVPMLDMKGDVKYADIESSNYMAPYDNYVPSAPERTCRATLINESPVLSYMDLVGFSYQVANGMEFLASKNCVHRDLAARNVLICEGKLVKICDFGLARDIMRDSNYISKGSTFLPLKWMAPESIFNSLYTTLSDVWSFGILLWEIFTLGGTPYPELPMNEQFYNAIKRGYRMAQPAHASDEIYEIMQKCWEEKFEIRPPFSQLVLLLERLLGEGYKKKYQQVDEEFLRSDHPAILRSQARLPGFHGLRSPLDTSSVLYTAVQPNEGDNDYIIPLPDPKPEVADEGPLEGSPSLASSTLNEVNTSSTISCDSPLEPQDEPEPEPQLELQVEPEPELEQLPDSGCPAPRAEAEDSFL

Data set [5] concerns VEGF permeability model. Put plainly: VEGF permeability model, intravitreal injection. The data set is classed as in vivo. The note with it: dosed by intravitreal injection.

VEGFR2, sequence (P35968 20-1356): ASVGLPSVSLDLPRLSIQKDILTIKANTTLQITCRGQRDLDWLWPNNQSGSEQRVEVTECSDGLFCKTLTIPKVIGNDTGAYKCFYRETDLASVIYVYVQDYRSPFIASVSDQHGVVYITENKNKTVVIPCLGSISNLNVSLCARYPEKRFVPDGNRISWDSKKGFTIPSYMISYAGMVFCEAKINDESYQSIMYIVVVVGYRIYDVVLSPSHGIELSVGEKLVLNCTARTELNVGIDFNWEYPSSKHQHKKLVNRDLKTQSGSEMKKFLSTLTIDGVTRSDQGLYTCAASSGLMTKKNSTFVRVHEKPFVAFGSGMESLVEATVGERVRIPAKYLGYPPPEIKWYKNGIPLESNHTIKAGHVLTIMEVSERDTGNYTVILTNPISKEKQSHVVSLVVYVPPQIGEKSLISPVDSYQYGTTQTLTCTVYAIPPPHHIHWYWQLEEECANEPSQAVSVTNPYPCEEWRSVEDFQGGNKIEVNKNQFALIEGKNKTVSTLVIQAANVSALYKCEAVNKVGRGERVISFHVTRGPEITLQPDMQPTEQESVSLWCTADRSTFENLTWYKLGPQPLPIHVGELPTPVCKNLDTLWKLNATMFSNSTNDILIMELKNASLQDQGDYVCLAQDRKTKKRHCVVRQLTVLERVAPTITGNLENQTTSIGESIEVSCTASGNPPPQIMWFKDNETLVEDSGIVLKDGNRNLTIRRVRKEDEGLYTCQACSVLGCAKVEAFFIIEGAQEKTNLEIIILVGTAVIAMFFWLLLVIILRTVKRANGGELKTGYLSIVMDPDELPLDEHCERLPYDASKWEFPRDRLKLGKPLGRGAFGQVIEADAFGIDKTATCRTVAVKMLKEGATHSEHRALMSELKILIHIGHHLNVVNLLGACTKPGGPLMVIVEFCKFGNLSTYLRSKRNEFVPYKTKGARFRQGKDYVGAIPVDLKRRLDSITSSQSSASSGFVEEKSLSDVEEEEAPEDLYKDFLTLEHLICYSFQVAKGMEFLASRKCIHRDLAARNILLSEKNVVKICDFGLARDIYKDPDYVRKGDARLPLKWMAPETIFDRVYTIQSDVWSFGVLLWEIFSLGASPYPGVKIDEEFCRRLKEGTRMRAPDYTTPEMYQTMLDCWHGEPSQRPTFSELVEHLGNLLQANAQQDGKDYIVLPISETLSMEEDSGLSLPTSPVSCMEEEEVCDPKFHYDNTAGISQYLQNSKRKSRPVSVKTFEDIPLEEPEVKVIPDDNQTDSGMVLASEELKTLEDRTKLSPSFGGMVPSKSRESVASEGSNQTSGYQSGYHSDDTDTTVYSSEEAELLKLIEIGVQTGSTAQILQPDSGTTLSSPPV
VEGFR2 (KDR), sequence (P35968 786-1356): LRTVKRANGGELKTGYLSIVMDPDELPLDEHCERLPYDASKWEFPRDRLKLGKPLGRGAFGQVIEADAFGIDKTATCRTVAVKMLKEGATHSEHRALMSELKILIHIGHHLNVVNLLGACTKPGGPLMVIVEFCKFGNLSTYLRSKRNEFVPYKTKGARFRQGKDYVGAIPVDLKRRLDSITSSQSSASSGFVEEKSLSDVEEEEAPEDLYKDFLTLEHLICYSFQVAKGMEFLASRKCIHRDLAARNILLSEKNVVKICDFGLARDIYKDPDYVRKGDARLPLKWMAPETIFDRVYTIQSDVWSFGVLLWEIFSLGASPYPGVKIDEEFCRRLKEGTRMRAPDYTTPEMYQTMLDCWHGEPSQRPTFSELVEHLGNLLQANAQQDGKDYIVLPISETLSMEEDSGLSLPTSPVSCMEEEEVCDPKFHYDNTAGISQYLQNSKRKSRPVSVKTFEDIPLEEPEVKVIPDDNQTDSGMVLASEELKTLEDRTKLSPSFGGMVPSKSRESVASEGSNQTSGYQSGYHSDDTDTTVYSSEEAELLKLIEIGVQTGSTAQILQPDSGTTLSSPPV

With `Cc1ccoc1C(=O)Nc1cccc(C#Cc2cncc(C(=O)N=S3(=O)CCCC3)c2)c1` [Example 3, 5-({3-[(3-Methyl-2-furoyl)amino]phenyl}ethynyl)-N-(1-oxidotetrahydro-1H-λ^4-thien-1-ylidene)nicotinamide], the IC50 (in general, the midpoint of a concentration-inhibition curve) in data set [1] amounted to 2 nM; in data set [2], 3 nM; in data set [3], 34 nM; in data set [4] it was 66 nM.

For `COC(=O)CCCCS(C)(=O)=NC(=O)c1cnc(N)c(C#Cc2cccc(NC(=O)c3ccc(OC)c(OC)c3)c2)c1` (stereo not shown) [Example 31, Methyl 5-(N-{[6-amino-5-({3-[(3,4-dimethoxybenzoyl)amino]phenyl}ethynyl)pyridin-3-yl]carbonyl}-S-methylsulfonimidoyl)pentanoate], the half-maximal inhibitory concentration (IC50) was determined as 15 nM in data set [1], 4 nM in data set [2], 38 nM in data set [3] and 13 nM in data set [4].

Consider `Cc1ccc(F)c(NC(=O)Nc2cccc(C#Cc3cncc(C(=O)N=S(C)(C)=O)c3)c2)c1` [Example 8, N-[Dimethyl(oxido)-λ^4-sulfanylidene]-5-{[3-({[(2-fluoro-5-methylphenyl)amino]carbonyl}amino)phenyl]ethynyl}nicotinamide], for which the IC50 in data set [1] turned out to be 3 nM; in data set [2] it was 10 nM; in data set [4] it was 28 nM.

As for `COC(=O)CCCCS(C)(=O)=NC(=O)c1cnc(N)c(C#Cc2cccc(C(=O)Nc3cccc(C)c3)c2)c1` (stereo not shown) [Example 34, Methyl 5-[N-({6-amino-5-[(3-{[(3-methylphenyl)amino]carbonyl}phenyl)ethynyl]pyridin-3-yl}carbonyl)-S-methylsulfonimidoyl]pentanoate], the IC50 came to 7 nM in data set [1], 2 nM in data set [2], 15 nM in data set [3] and 13 nM in data set [4]. The “in vivo efficacy in the VEGF permeability model” value (“in vivo efficacy” below) in data set [5] was “good in vivo efficacy”.

With `COC(=O)CCCCS(C)(=O)=NC(=O)c1cnc(N)c(C#Cc2cccc(NC(=O)c3cccc(C)c3)c2)c1` (stereo not shown) [Example 26, Methyl 5-(N-{[6-amino-5-({3-[(3-methylbenzoyl)amino]phenyl}ethynyl)pyridin-3-yl]carbonyl}-S-methylsulfonimidoyl)pentanoate], the IC50 in data set [1] came to 4 nM; in data set [2], 1 nM; in data set [3], 11 nM; in data set [4], 10 nM. Further, in data set [5], the “in vivo efficacy” value was “good in vivo efficacy”.

Regarding `COC(=O)CCCC[S@](C)(=O)=NC(=O)c1cnc(N)c(C#Cc2cccc(NC(=O)c3occc3C)c2)c1` [Example 32, (S)-methyl 5-(N-{[6-amino-5-({3-[(3-methyl-2-furoyl)amino]phenyl}ethynyl)pyridin-3-yl]carbonyl}-S-methylsulfonimidoyl)pentanoate], the half-inhibitory concentration (IC50) came out at 3 nM in data set [1], 1 nM in data set [2], 31 nM in data set [3] and 60 nM in data set [4]. In data set [5], the “in vivo efficacy” value is “good in vivo efficacy”.

In the case of `COC(=O)CCCCS(C)(=O)=NC(=O)c1cnc(N)c(C#Cc2cccc(C(=O)Nc3cc(C(C)(C)C)on3)c2)c1` (stereo not shown) [Example 36, Methyl 5-[N-({6-amino-5-[(3-{[(5-tert-butylisoxazol-3-yl)amino]carbonyl}phenyl)ethynyl]pyridin-3-yl}carbonyl)-S-methylsulfonimidoyl]pentanoate], the IC50 in data set [1] amounted to 10 nM; in data set [2], 1 nM; in data set [4] it was 18 nM.

With `COC(=O)CCCCS(C)(=O)=NC(=O)c1cnc(N)c(C#Cc2cccc(NC(=O)c3cccc(C(F)(F)F)c3)c2)c1` (stereo not shown) [Example 28, Methyl 5-[N-({6-amino-5-[(3-{[3-(trifluoromethyl)benzoyl]amino}phenyl)ethynyl]pyridin-3-yl}carbonyl)-S-methylsulfonimidoyl]pentanoate], the IC50 amounted to 4 nM in data set [1], 4 nM in data set [2], 9 nM in data set [3] and 12 nM in data set [4].

As to `COC(=O)CCCCS(C)(=O)=NC(=O)c1cnc(N)c(C#Cc2cccc(NC(=O)c3cc(C(F)(F)F)ccc3F)c2)c1` (stereo not shown) [Example 27, Methyl 5-[N-({6-amino-5-[(3-{[2-fluoro-5-(trifluoromethyl)benzoyl]amino}phenyl)ethynyl]pyridin-3-yl}carbonyl)-S-methylsulfonimidoyl]pentanoate], the IC50 in data set [1] amounted to 10 nM; in data set [2], 1 nM; in data set [3], 40 nM; in data set [4], 19 nM.

On to `Cc1ccoc1C(=O)Nc1cccc(C#Cc2cc(C(=O)N=S(C)(C)=O)cnc2N)c1` [Example 1, 6-Amino-N-[dimethyl(oxido)-λ^4-sulfanylidene]-5-({3-[(3-methyl-2-furoyl)amino]phenyl}ethynyl)nicotinamide], for which the IC50 in data set [1] came out at 6 nM; in data set [2], 1 nM; in data set [3], 16 nM; in data set [4], 11 nM.

Turning to `COC(=O)CCCCS(C)(=O)=NC(=O)c1cnc(N)c(C#Cc2cccc(NC(=O)Nc3cccc(C)c3)c2)c1` (stereo not shown) [Example 38, Methyl 5-{N-[(6-amino-5-{[3-({[(3-methylphenyl)amino]carbonyl}amino)phenyl]ethynyl}pyridin-3-yl)carbonyl]-S-methylsulfonimidoyl}pentanoate], the IC50 stood at 4 nM in data set [1], 13 nM in data set [3] and 25 nM in data set [4].

Take `Cc1ccoc1C(=O)Nc1cccc(C#Cc2cc(C(=O)N=S3(=O)CCCC3)cnc2N)c1` [Example 4, 6-Amino-5-({3-[(3-methyl-2-furoyl)amino]phenyl}ethynyl)-N-(1-oxidotetrahydro-1H-1λ^4-thien-1-ylidene)nicotinamide]: the IC50 in data set [1] worked out at 2 nM; in data set [2], 2 nM; in data set [3] it was 30 nM; in data set [4], 15 nM.

For `COC(=O)CCCCS(C)(=O)=NC(=O)c1cnc(N)c(C#Cc2cccc(NC(=O)c3ccc(Cl)c(C(F)(F)F)c3)c2)c1` (stereo not shown) [Example 29, Methyl 5-[N-({6-amino-5-[(3-{[4-chloro-3-(trifluoromethyl)benzoyl]amino}phenyl)ethynyl]pyridin-3-yl}carbonyl)-S-methylsulfonimidoyl]pentanoate], the IC50 in data set [1] was found to be 4 nM; in data set [2], 6 nM; in data set [3] it was 25 nM; in data set [4], 15 nM.

For `COC(=O)CCCCS(C)(=O)=NC(=O)c1cnc(N)c(C#Cc2cccc(NC(=O)Nc3cc(C)ccc3F)c2)c1` (stereo not shown) [Example 37, Methyl 5-{N-[(6-amino-5-{[3-({[(2-fluoro-5-methylphenyl)amino]carbonyl}amino)phenyl]ethynyl}pyridin-3-yl)carbonyl]-S-methylsulfonimidoyl}pentanoate], the figures for the IC50 in data set [1], in data set [3] and in data set [4] were 5 nM, 14 nM and 44 nM, respectively.
